From the supplement of paper PMC11061612

Columns and labels:
[1] = tested on: KGN (Other Solid Carcinomas); experiment: Bliss excess, mean over the matrix (fraction); higher = more synergy
Procedure, shortened: (§1)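 Bliss excess equals the observed combination effect minus the expected value EA + EB − EA·EB, where EA and EB are the effects of each agent alone. Combination Emax is the second-highest inhibition within the matrix. Inhibition was scaled from CellTiter-Glo 2.0 luminescence, with 0 set by vehicle wells and 1 by blank wells, after 72 hours of two-drug dosing of cells plated in 1536-well plates.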

SK-N-AS (Neuroblastoma) [2] = experiment: as above
Procedure, shortened: as §1

[3] = tested on: ME-180 (Cervical Carcinoma); experiment: as above
Procedure, shortened: as §1

[4] = tested on: NCI-H522 (Lung Adenocarcinoma); experiment: as above
Procedure, shortened: as §1

[5] = tested on: SNU-387 (Hepatocellular Carcinoma); experiment: as above
Procedure, shortened: as §1

[6] = tested on: MOG-G-UVW (Low Grade Glioma); experiment: combination Emax (second highest fraction inhibited in the dose matrix, 72 h); higher = more inhibition; extreme values may be limits of the assay
Procedure, shortened: as §1

[7] = tested on: KGN (Other Solid Carcinomas); experiment: as above
Procedure, shortened: as §1

SK-N-AS (Neuroblastoma) [8] = experiment: as above
Procedure, shortened: as §1

[9] = tested on: NCI-H1993 (Lung Adenocarcinoma); experiment: as above
Procedure, shortened: as §1

[10] = tested on: KMRC-1 (Kidney Carcinoma); experiment: as above
Procedure, shortened: as §1

[11] = tested on: ME-180 (Cervical Carcinoma); experiment: as above
Procedure, shortened: as §1

[12] = tested on: NCI-H522 (Lung Adenocarcinoma); experiment: as above
Procedure, shortened: as §1

[13] = tested on: EFO-21 (Ovarian Carcinoma); experiment: as above
Procedure, shortened: as §1

[14] = tested on: A4-Fuk (B-Lymphoblastic Leukemia); experiment: as above
Procedure, shortened: as §1

[15] = tested on: Mo-T (Other Blood Carcinomas); experiment: as above
Procedure, shortened: as §1

[16] = tested on: MDA-MB-453 (Breast Carcinoma); experiment: as above
Procedure, shortened: as §1

[17] = tested on: NCI-H1355 (Lung Adenocarcinoma); experiment: as above
Procedure, shortened: as §1

[18] = tested on: MOLT-4 (T-Lymphoblastic Leukemia); experiment: as above
Procedure, shortened: as §1

[19] = tested on: SW872 (Other Solid Carcinomas); experiment: as above
Procedure, shortened: as §1

[20] = tested on: SKN (Other Solid Carcinomas); experiment: as above
Procedure, shortened: as §1

SMILES | Bliss excess [1] | Bliss excess (SK-N-AS (Neuroblastoma) [2]) | Bliss excess [3] | Bliss excess [4] | Bliss excess [5] | combination Emax [6] | combination Emax [7] | combination Emax (SK-N-AS (Neuroblastoma) [8]) | combination Emax [9] | combination Emax [10] | combination Emax [11] | combination Emax [12] | combination Emax [13] | combination Emax [14] | combination Emax [15] | combination Emax [16] | combination Emax [17] | combination Emax [18] | combination Emax [19] | combination Emax [20]
COc1cc2ncnc(Nc3ccc(F)c(Cl)c3)c2cc1OCCCN1CCOCC1 [Gefitinib] + CC(C)n1c(=O)n(C)c2cnc3cc(F)c(-c4ccc(OCCCN5CCCCC5)nc4)cc3c21 [AZD1390] (first compound max 10 µM, 7x7, partner max 0.3 µM) | -0.0632 | -0.0588 | -0.0413 | -0.0551 | -0.0714 | 0.115 | 0.368 | 0.0247 | 0.349 | 0.0966 | 0.42 | 0.196 | 0.198 | 0.307 | 0.178 | 0.204 | 0.133 | 0.373 | 0.131 | 0.199
COc1cc2c(cc1OCCCCCOc1cc3c(cc1OC)C(=O)N1C=C(C)C[C@H]1C=N3)N=C[C@@H]1CC(C)=CN1C2=O [SG3199] + O=C(c1cc(Cc2n[nH]c(=O)c3ccccc23)ccc1F)N1CCN(C(=O)C2CC2)CC1 [Olaparib] (first compound max 0.001 µM, 7x7, partner max 10 µM) | -0.04 | -0.0176 | -0.0495 | -0.0245 | -0.0533 | 0.307 | 0.475 | 0.0679 | 0.0845 | 0.0927 | 0.201 | 0.144 | 0.176 | 0.157 | 0.322 | 0.128 | 0.104 | 0.402 | 0.0788 | 0.0757
N#Cc1cnc(Nc2cc(NC[C@H]3CNCCO3)c(C(F)(F)F)cn2)cn1 [SRA737] + C=CCn1c(=O)c2cnc(Nc3ccc(N4CCN(C)CC4)cc3)nc2n1-c1cccc(C(C)(C)O)n1 [AZD1775] (first compound max 10 µM, partner max 1 µM) | 0.0807 | 0.0512 | -0.0149 | -0.0295 | 0.03 | 0.881 | 0.812 | 0.811 | 0.88 | 0.54 | 0.541 | 0.402 | 0.431 | 0.959 | 0.565 | 0.667 | 0.633 | 1 | 0.683 | 0.518
N#Cc1cnc(Nc2cc(NC[C@H]3CNCCO3)c(C(F)(F)F)cn2)cn1 [SRA737] + CCc1c2c(nc3ccc(O)cc13)-c1cc3c(c(=O)n1C2)COC(=O)[C@]3(O)CC [SN-38] (first compound max 10 µM, 7x7, partner max 0.3 µM) | -0.0554 | 0.0144 | 0.0247 | 0.0337 | 0.0321 | 0.925 | 0.836 | 0.763 | 0.835 | 0.525 | 0.95 | 0.635 | 0.541 | 0.974 | 0.821 | 0.719 | 0.599 | 1 | 0.947 | 0.749
C[C@@H](c1ccc2nccn2c1)n1nnc2ncc(-c3cnn(C)c3)nc21 [Savolitinib] + CC1(C)CCC(CN2CCN(c3ccc(C(=O)NS(=O)(=O)c4ccc(NCC5CCOCC5)c([N+](=O)[O-])c4)c(Oc4cnc5[nH]ccc5c4)c3)CC2)=C(c2ccc(Cl)cc2)C1 [Venetoclax] (first compound max 1 µM, 7x7, partner max 1 µM) | -0.0249 | -0.0568 | -0.084 | -0.0504 | -0.106 | 0.392 | 0.233 | 0.12 | 0.754 | 0.141 | 0.114 | 0.111 | 0.212 | 0.199 | 0.114 | 0.15 | 0.137 | 0.476 | 0.136 | 0.169
C[C@@H](c1ccc2nccn2c1)n1nnc2ncc(-c3cnn(C)c3)nc21 [Savolitinib] + Cc1c2c(nn1C)CSCc1cc(n(C)n1)CSc1cc(c3ccccc3c1)OCCCc1c(C(=O)O)n(C)c3c-2c(Cl)ccc13 [AZD5991] (first compound max 1 µM, 7x7, partner max 1 µM) | -0.0302 | -0.0749 | -0.0651 | -0.0353 | -0.0858 | 0.343 | 0.303 | 0.314 | 0.789 | 0.209 | 0.114 | 0.281 | 0.163 | 1 | 0.129 | 0.261 | 0.207 | 0.491 | 0.201 | 0.219
